Assay results published in patent US5856095A, “Identification of two novel mutant alleles of human thiopurine S-methyltransferase, and diagnostic uses thereof” (priority 1995, dated 1999).
Entries after “also recorded” stand apart in the source; their conditions may differ. Read-outs that look alike come from different tables or passages of the source.

Tests used:
[1] = patients with TPMT deficiency treated with standard dosages; cited from earlier work
TPMTA = TPMTA (Homo sapiens, UniProt P51580, A80P); settings: heterologously expressed TPMTA
[2] = Hematopoietic toxicity of thiopurines in TPMT-deficient patients; type: in vivo, human
Description: TPMT phenotype was assigned on the basis of erythrocyte TPMT activity, according to the criteria of Weinshilboum and Sladek (Weinshilboum and Sladek, Am. J. Hum. Genet. 32:651-662 (1980)).

TPMT460 = tested on: TPMT460
Excerpt: (§1) FIGS. 9A, 9B, and 9C depict comparison of TPMT mRNA, protein, and activity levels in yeast transformed with vector alone without any insert (lane 1), vector with wild-type cDNA (lane 2), vector with cDNA containing G460A (lane 3), vector with cDNA containing A719G (lane 4), vector with cDNA containing both G460A and A719G (TPMTB) (lanes 5 and 6).
(§2) The wild type and mutant cDNA clones were used as templates for site-directed mutagenesis. PCR conditions were as described above except that annealing temperature was changed to 50° C. and 1.3 units of Pyrococcus furiosus DNA polymerase (Stratagene, La Jolla, Calif.) was used. […] In order to prepare cDNA containing either mutation found in this patient, two reverse primers were designed for further mutagenesis. […] The resultant PCR products were also ligated into the expression vector. […] Nucleotide structures of all cDNAs were confirmed by sequencing.
(§3) Yeast cells were treated with Lyticase (Sigma, St. Louis, Mo.), sedimented after washing with a buffer (pH 6.2) containing 20 mM 2-[N-morpholino]ethanesulfonic acid (MES) and 1.5M sorbitol, and resuspended with Tris-HCl buffer (pH 7.8) containing 100 KIU/Ml aprotinin and 1 mM phenylmethylsulfonyl fluoride. After sonication, the cytosolic fraction was obtained by centrifugation at 100,000 g for 60 min at 4° C. […] The level of expression was measured by Western blot analysis.
(§4) The amount of TPMT in each reaction was made the same (0.57 μg TPMT) by adjusting the amount of yeast cytosol according to TPMT protein levels detected by the Western-blot analysis.

TPMT719 = molecular target: T1, TPMT719 (Homo sapiens, UniProt P51580, Y240C)
T1 sequence (P51580 1-245 Y240C): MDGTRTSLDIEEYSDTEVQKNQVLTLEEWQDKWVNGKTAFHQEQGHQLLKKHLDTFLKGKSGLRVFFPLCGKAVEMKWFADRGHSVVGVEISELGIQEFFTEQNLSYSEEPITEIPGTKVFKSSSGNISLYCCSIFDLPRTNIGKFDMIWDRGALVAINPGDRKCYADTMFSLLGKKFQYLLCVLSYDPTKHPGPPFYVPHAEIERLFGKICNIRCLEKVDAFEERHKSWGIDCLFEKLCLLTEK
Excerpt: as §1, §2, §3, §4

TPMTB = molecular target: T2, TPMTB (Homo sapiens, UniProt P51580, A154T/Y240C); experiment: S-methylation of 6-MP catalyzed by TPMTB (G460A and A719G) expressed in yeast (kinetic parameters, activity); type: biochemical; settings: 6MP concentrations up to 2 mM
T2 construct: the whole mutant proteins are expressed in yeast; made in house; host or cells: yeast strain 2805
T2 sequence (P51580 1-245 A154T/Y240C): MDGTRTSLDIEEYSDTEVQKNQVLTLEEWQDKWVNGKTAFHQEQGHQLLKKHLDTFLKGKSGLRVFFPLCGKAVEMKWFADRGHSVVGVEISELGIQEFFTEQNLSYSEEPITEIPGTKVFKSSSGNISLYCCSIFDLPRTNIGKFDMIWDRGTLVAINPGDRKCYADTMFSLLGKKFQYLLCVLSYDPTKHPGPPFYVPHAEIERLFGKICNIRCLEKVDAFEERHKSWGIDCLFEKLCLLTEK
Description: Yeast cells transformed with recombinant expression vectors or the vector without TPMT cDNA (control) were grown on galactose-containing medium for 24 hr at 30° C. Yeast cells were treated with Lyticase (Sigma, St. Louis, Mo.), sedimented after washing with a buffer (pH 6.2) containing 20 mM 2-[N-morpholino]ethanesulfonic acid (MES) and 1.5M sorbitol, and resuspended with Tris-HCl buffer (pH 7.8) containing 100 KIU/Ml aprotinin and 1 mM phenylmethylsulfonyl fluoride. After sonication, the cytosolic fraction was obtained by centrifugation at 100,000 g for 60 min at 4° C. The concentration of protein in yeast lysates was determined using the Bio-RadDC protein assay (Lowry, O. H., et al., J. Biol. Chem. 193:265-275 (1951)). The level of expression was measured by Western blot analysis.
These reaction conditions differ from that previously published (Krynetski, E. Y. et al., Mol. Pharmacol. 47:1141-1147 (1995)); i.e. incubation at 37 C instead of 21.5 C, analysis of MeMP production formation instead of substrate disappearance, and the use of higher substrate concentrations in the present study. The amount of TPMT in each reaction was made the same (0.57 μg TPMT) by adjusting the amount of yeast cytosol according to TPMT protein levels detected by the Western-blot analysis. […]

[3] = human, in vivo
TPMT [4] = experiment: TPMT enzymatic activity of yeast lysates expressing wild-type or G238C mutant TPMT cDNA (Example 1); type: biochemical, human; settings: for enzymatic activity, fold difference between wild-type and G238C mutant TPMT: expressed in yeast; for TPMT activity in yeast lysates: yeast transformed with wild-type or G238C mutant TPMT cDNA
Description: In all experiments on heterologous expression of TPMT, yeast transformed with the expression vector without the TPMT cDNA insert was used as a control.
Enzymatic activity of yeast lysates was assayed in a total volume of 1 ml, and formation of the S-methylated thiopurine product was determined by HPLC.

TPMT [5] = experiment: Intrinsic stability of recombinant TPMT proteins at 37° C. in vitro; type: biochemical, human; settings: for TPMT activity at 37° C., 0 hr: yeast lysates, 2 mM 6MP and 1 mM SAM; for time to inactivation: 0.1M Tris-HCl pH 7.5
Description: Yeast cytosols expressing wild-type TPMT460, or TPMT719 protein were incubated in 0.1M Tris-HCl (pH 7.5) at 37° C. […] The assay of TPMT activity was then allowed to proceed for 15 min at 37° C., and MeMP was measured as described above. Total protein concentrations of yeast lysate in the incubation mixture were 0.09, 0.37, 0.08 mg/ml for the wild-type, TPMT460, and TPMT719, respectively, to give equal amount of TPMT in the incubation. The same assay mixture without yeast lysate served as the blank, and the background values for non-enzymatic methylation (<10%) were subtracted from all values obtained. An aliquot of sample at each time point was taken for Western blot analysis. The samples at 0° C., 0 hr served as controls for the blots with TPMT460 and TPMT719.

[6] = yeast lysates, 10 μM 6MP and 1 mM SAM (FIG. 9C)

## Cn1cnc([N+](=O)[O-])c1Sc1ncnc2nc[nH]c12 [azathioprine]
[1]
  hematopoietic toxicity: severe hematopoietic toxicity

## Sc1ncnc2nc[nH]c12 [6MP, 6-mercaptopurine]
TPMTA
  Vmax/Km ratio, fold lower than wild-type TPMT: 5 fold
[2]; TPMT-deficient child with acute lymphoblastic leukemia, oral 75 mg/m2 per day
  hematopoietic toxicity: severe hematopoietic toxicity
[2]; TPMT-deficient child with acute lymphocytic leukemia, 50 mg/m2/day
  hematopoietic toxicity: severe hematopoietic toxicity
TPMT460; substrate 6MP
  increase in Km for 6MP versus wild-type: 46 fold
TPMT460; [6]
  catalytic activity reduced compared with wild-type, normalized to TPMT content: 9 fold
TPMT719
  intrinsic clearance (Vmax/Km) relative to wild-type: comparable to wild-type
TPMT719; [6]
  catalytic activity reduced compared with wild-type, normalized to TPMT content: 1.4 fold
TPMTB
  TPMT activity (S-methylation of 6MP): no activity of TPMTB could be detected; also recorded: undetectable
[1]
  hematopoietic toxicity: severe hematopoietic toxicity
[3]
  erythrocyte concentration of TGNs, fold higher than the population median: > 15 fold
  erythrocyte concentration of TGNs, population median: 280 pmol/ml pRBC

## C[S+](CC[C@H](N)C(=O)O)C[C@H]1O[C@@H](n2cnc3c(N)ncnc32)[C@H](O)[C@@H]1O (some centres unmarked) [SAM]
TPMT460; co-substrate SAM
  increase in Km for co-substrate SAM versus wild-type: 200 fold

B1: TPMTA: mutant TPMT with G238C point mutation, Ala80→Pro, expressed in yeast (protein)
chain: MDGTRTSLDIEEYSDTEVQKNQVLTLEEWQDKWVNGKTAFHQEQGHQLLKKHLDTFLKGKSGLRVFFPLCGKAVEMKWFPDRGHSVVGVEISELGIQEFFTEQNLSYSEEPITEIPGTKVFKSSSGNISLYCCSIFDLPRTNIGKFDMIWDRGALVAINPGDRKCYADTMFSLLGKKFQYLLCVLSYDPTKHPGPPFYVPHAEIERLFGKICNIRCLEKVDAFEERHKSWGIDCLFEKLYLLTEK
TPMT [4]
  enzymatic activity, fold difference between wild-type and G238C mutant TPMT: approximately 100 fold
  TPMT activity in yeast lysates: < 1.0 nmol/hr per mg of protein
TPMT [4]; listed as mutant TPMT
  enzymatic activity, fold difference between wild-type and G238C mutant TPMT: ≈ 100 fold

B2: wild-type TPMT: wild-type human thiopurine S-methyltransferase expressed in yeast (protein)
chain: MDGTRTSLDIEEYSDTEVQKNQVLTLEEWQDKWVNGKTAFHQEQGHQLLKKHLDTFLKGKSGLRVFFPLCGKAVEMKWFADRGHSVVGVEISELGIQEFFTEQNLSYSEEPITEIPGTKVFKSSSGNISLYCCSIFDLPRTNIGKFDMIWDRGALVAINPGDRKCYADTMFSLLGKKFQYLLCVLSYDPTKHPGPPFYVPHAEIERLFGKICNIRCLEKVDAFEERHKSWGIDCLFEKLYLLTEK
TPMT [4]
  TPMT activity in yeast lysates: 113-123 nmol/hr per mg of protein
TPMT [5]; 37° C., 12 hr
  TPMT activity remaining: 30%
TPMT [5]
  TPMT activity at 37° C., 0 hr: 83.7 nmol/min/mg TPMT

B3: TPMT460: TPMT from cDNA containing only G460A (Ala154→Thr), expressed in yeast (protein)
chain: MDGTRTSLDIEEYSDTEVQKNQVLTLEEWQDKWVNGKTAFHQEQGHQLLKKHLDTFLKGKSGLRVFFPLCGKAVEMKWFADRGHSVVGVEISELGIQEFFTEQNLSYSEEPITEIPGTKVFKSSSGNISLYCCSIFDLPRTNIGKFDMIWDRGTLVAINPGDRKCYADTMFSLLGKKFQYLLCVLSYDPTKHPGPPFYVPHAEIERLFGKICNIRCLEKVDAFEERHKSWGIDCLFEKLYLLTEK
TPMT [5]; 37° C.
  time to inactivation: ≤ 4 h
TPMT [5]
  TPMT activity at 37° C., 0 hr: 142.5 nmol/min/mg TPMT

B4: TPMT719: TPMT from cDNA containing only A719G (Tyr240→Cys), expressed in yeast (protein)
chain: MDGTRTSLDIEEYSDTEVQKNQVLTLEEWQDKWVNGKTAFHQEQGHQLLKKHLDTFLKGKSGLRVFFPLCGKAVEMKWFADRGHSVVGVEISELGIQEFFTEQNLSYSEEPITEIPGTKVFKSSSGNISLYCCSIFDLPRTNIGKFDMIWDRGALVAINPGDRKCYADTMFSLLGKKFQYLLCVLSYDPTKHPGPPFYVPHAEIERLFGKICNIRCLEKVDAFEERHKSWGIDCLFEKLCLLTEK
TPMT [5]; 37° C.
  time to inactivation: ≤ 4 h
TPMT [5]
  TPMT activity at 37° C., 0 hr: 88.6 nmol/min/mg TPMT
